In ChEMBL document CHEMBL1201862, “PubChem BioAssay data set” (2004):
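Grown in 96-well plates, cells were treated for 48 hours with each compound at five concentrations. Insufficient inhibition: endpoint recorded as highest concentration tested. Abbreviation: GI50, concentration required for 50% inhibition of growth.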 The source made the active and inactive calls. Rule as the data show it: active = GI50 up to about 1.1 µM and inactive = higher.

Key:
Experiment in all cases: DTP human tumour cell line panel, 48 h
SF-539 = system: SF-539
OVCAR-4 = system: OVCAR-4
OVCAR-3 = system: OVCAR-3
786-0 = system: 786-0
M14 = system: M14
HOP-92 = system: HOP-92
KM-20L2 = system: KM-20L2
MOLT-4 = system: MOLT-4
SK-MEL-5 = system: SK-MEL-5
UACC-257 = system: UACC-257
HOP-62 = system: HOP-62
MDA-MB-231 = system: MDA-MB-231
Hs-578T = system: Hs-578T
RPMI-8226 = system: RPMI-8226
PC-3 = system: PC-3
SR = system: SR
RXF 631 = system: RXF 631
OVCAR-5 = system: OVCAR-5
LXFL 529 = system: LXFL 529
SW-620 = system: SW-620
DMS-273 = system: DMS-273
EKVX = system: EKVX
LOX IMVI = system: LOX IMVI
DU-145 = system: DU-145
XF498 = system: XF498
MDA-MB-435 = system: MDA-MB-435
ACHN = system: ACHN
SK-MEL-28 = system: SK-MEL-28
IGROV-1 = system: IGROV-1
HCT-116 = system: HCT-116
CCRF-CEM = system: CCRF-CEM
HL-60 = system: HL-60
SF-295 = system: SF-295
SNB-75 = system: SNB-75
NCI/ADR-RES = system: NCI/ADR-RES
M19-MEL = system: M19-MEL
DMS-114 = system: DMS-114
NCI-H226 = system: NCI-H226
HT-29 = system: HT-29
U-251 = system: U-251
SNB-19 = system: SNB-19
Malme-3M = system: Malme-3M
NCI-H460 = system: NCI-H460
A549 = system: A549
T47D = system: T47D
SK-MEL-2 = system: SK-MEL-2
NCI-H522 = system: NCI-H522
MDA-N = system: MDA-N
TK-10 = system: TK-10
HCT-15 = system: HCT-15
KM12 = system: KM12
UACC-62 = system: UACC-62
NCI-H23 = system: NCI-H23
COLO 205 = system: COLO 205
SF-268 = system: SF-268
HCC 2998 = system: HCC 2998
SN12C = system: SN12C
DLD-1 = system: DLD-1
UO-31 = system: UO-31
HOP-18 = system: HOP-18
SK-OV-3 = system: SK-OV-3
K562 = system: K562
CAKI-1 = system: CAKI-1
OVCAR-8 = system: OVCAR-8
MCF7 = system: MCF7
BT-549 = system: BT-549
RXF 393 = system: RXF 393
A498 = system: A498
SNB-78 = system: SNB-78

Measured: GI50

COc1cc2c[n+](C)c3c4ccccc4ccc3c2cc1OC.COc1cc2cnc3c4ccccc4ccc3c2cc1OC
active: KM12 0.859 µM | SF-268 0.592 µM
> 100 µM: HCT-15
inactive: SF-539 10 µM | OVCAR-4 21.7 µM | OVCAR-3 4.13 µM | 786-0 12.3 µM | M14 20.2 µM | HOP-92 10.6 µM | KM-20L2 8.81 µM | MOLT-4 1.46 µM | SK-MEL-5 14.9 µM | UACC-257 20 µM | HOP-62 19.1 µM | MDA-MB-231 2.79 µM | Hs-578T 2.31 µM | RPMI-8226 8.11 µM | PC-3 2.84 µM | SR 4.42 µM | RXF 631 23 µM | OVCAR-5 17.3 µM | LXFL 529 2.21 µM | SW-620 4.34 µM | DMS-273 2.88 µM | EKVX 2.2 µM | LOX IMVI 11.5 µM | DU-145 5.68 µM | XF498 5.69 µM | MDA-MB-435 2.87 µM | ACHN 73.1 µM | SK-MEL-28 5.5 µM | IGROV-1 11.8 µM | HCT-116 7.83 µM | CCRF-CEM 6.47 µM | HL-60 42.7 µM | SF-295 19.6 µM | SNB-75 3.54 µM | NCI/ADR-RES 10 µM | M19-MEL 3.85 µM | DMS-114 2.31 µM | NCI-H226 13.1 µM | HT-29 7.59 µM | U-251 3.05 µM | SNB-19 3.94 µM | Malme-3M 3.21 µM | NCI-H460 11.6 µM | A549 2.54 µM | T47D 3.14 µM | SK-MEL-2 9.82 µM | NCI-H522 1.22 µM | MDA-N 7.05 µM | TK-10 26.6 µM | UACC-62 6.68 µM | NCI-H23 12.2 µM | COLO 205 2.86 µM | HCC 2998 8.47 µM | SN12C 2.84 µM | DLD-1 31.3 µM | UO-31 66.1 µM | HOP-18 23.3 µM | SK-OV-3 9.29 µM | K562 9.55 µM | CAKI-1 58.6 µM | OVCAR-8 12.1 µM | MCF7 1.79 µM | BT-549 6.85 µM | RXF 393 21.2 µM

C=CCN(N=O)C(=O)NCCCC(NC(C)=O)C(=O)NCc1ccccc1 (configuration not stated)
> 100 µM: HCT-15
inactive: SF-539 98.2 µM | OVCAR-4 > 100 µM | OVCAR-3 > 100 µM | 786-0 > 100 µM | M14 > 100 µM | HOP-92 61.5 µM | KM-20L2 > 100 µM | MOLT-4 > 100 µM | SK-MEL-5 > 100 µM | UACC-257 > 100 µM | HOP-62 > 100 µM | A498 > 100 µM | RPMI-8226 > 100 µM | RXF 631 > 100 µM | OVCAR-5 > 100 µM | LXFL 529 > 100 µM | SW-620 > 100 µM | DMS-273 > 100 µM | EKVX > 100 µM | LOX IMVI > 100 µM | XF498 > 100 µM | ACHN > 100 µM | SK-MEL-28 > 100 µM | IGROV-1 > 100 µM | CCRF-CEM > 100 µM | HL-60 > 100 µM | SF-295 > 100 µM | SNB-75 > 100 µM | M19-MEL > 100 µM | DMS-114 > 100 µM | NCI-H226 > 100 µM | HT-29 > 100 µM | U-251 > 100 µM | SNB-19 > 100 µM | Malme-3M > 100 µM | NCI-H460 > 100 µM | A549 > 100 µM | SK-MEL-2 > 100 µM | NCI-H522 > 100 µM | TK-10 > 100 µM | KM12 > 100 µM | UACC-62 > 100 µM | NCI-H23 > 100 µM | COLO 205 > 100 µM | SF-268 > 100 µM | SN12C > 100 µM | UO-31 > 100 µM | HOP-18 10.9 µM | SK-OV-3 > 100 µM | K562 > 100 µM | CAKI-1 > 100 µM | OVCAR-8 > 100 µM | RXF 393 > 100 µM

COc1cc2ccc(CC(N)=O)cc2cc1OC
> 100 µM: HCT-15
inactive: SF-539 > 100 µM | OVCAR-4 > 100 µM | OVCAR-3 > 100 µM | 786-0 > 100 µM | M14 > 100 µM | HOP-92 > 100 µM | KM-20L2 > 100 µM | SNB-78 > 100 µM | MOLT-4 > 100 µM | SK-MEL-5 > 100 µM | UACC-257 > 100 µM | HOP-62 > 100 µM | RPMI-8226 > 100 µM | RXF 631 > 100 µM | OVCAR-5 > 100 µM | LXFL 529 > 100 µM | SW-620 > 100 µM | DMS-273 > 100 µM | EKVX > 100 µM | LOX IMVI > 100 µM | XF498 > 100 µM | SK-MEL-28 > 100 µM | IGROV-1 > 100 µM | HCT-116 > 100 µM | CCRF-CEM > 100 µM | SF-295 > 100 µM | SNB-75 40.3 µM | M19-MEL > 100 µM | DMS-114 > 100 µM | NCI-H226 > 100 µM | HT-29 > 100 µM | U-251 > 100 µM | SNB-19 > 100 µM | Malme-3M > 100 µM | A549 > 100 µM | SK-MEL-2 > 100 µM | NCI-H522 > 100 µM | TK-10 > 100 µM | KM12 > 100 µM | UACC-62 > 100 µM | NCI-H23 > 100 µM | COLO 205 > 100 µM | SF-268 > 100 µM | SN12C > 100 µM | UO-31 > 100 µM | HOP-18 > 100 µM | SK-OV-3 > 100 µM | K562 > 100 µM | OVCAR-8 > 100 µM | RXF 393 > 100 µM

O=C(O)CN(c1ccccc1)S(=O)(=O)c1ccc([N+](=O)[O-])cc1
> 100 µM: HCT-15
inactive: SF-539 > 100 µM | OVCAR-4 > 100 µM | OVCAR-3 > 100 µM | 786-0 > 100 µM | M14 > 100 µM | HOP-92 > 100 µM | KM-20L2 > 100 µM | MOLT-4 > 100 µM | SK-MEL-5 > 100 µM | UACC-257 > 100 µM | A498 > 100 µM | RPMI-8226 > 100 µM | RXF 631 > 100 µM | OVCAR-5 > 100 µM | LXFL 529 > 100 µM | SW-620 > 100 µM | DMS-273 > 100 µM | EKVX > 100 µM | LOX IMVI > 100 µM | XF498 > 100 µM | ACHN > 100 µM | IGROV-1 > 100 µM | CCRF-CEM > 100 µM | HL-60 > 100 µM | SF-295 > 100 µM | M19-MEL > 100 µM | NCI-H226 > 100 µM | HT-29 > 100 µM | U-251 > 100 µM | SNB-19 > 100 µM | Malme-3M > 100 µM | NCI-H460 > 100 µM | A549 > 100 µM | SK-MEL-2 > 100 µM | NCI-H522 > 100 µM | TK-10 > 100 µM | KM12 > 100 µM | UACC-62 > 100 µM | NCI-H23 > 100 µM | COLO 205 > 100 µM | SN12C > 100 µM | DLD-1 > 100 µM | UO-31 > 100 µM | HOP-18 > 100 µM | SK-OV-3 > 100 µM | K562 > 100 µM | CAKI-1 > 100 µM | OVCAR-8 > 100 µM | RXF 393 > 100 µM
